Measurements reported in patent publication US10047051B2, “Substituted pyridines and method of use” (AbbVie S.á{acute over (.)}r.l., priority 2015, dated 2018).

Assays:
Format in all cases: cell-based
[1] = target: T1, CFTR ΔF508 mutant (Homo sapiens, UniProt P13569, DEL508-508); test: YFP-halide influx assay for the CFTR-ΔF508 mutation (CFBE41o- cells); settings: forskolin 10.67 μM; for EC50: from (1−F/F0) vs concentration plot
T1 construct: expressed in transfected cells; host or cells: CFBE41o- cells, adenoviral transduction
Summary of the method: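 CFBE41o- cells transduced with adenovirus expressing CFTR ΔF508 and halide-sensitive YFP H148Q/I152L/F47L, then held 24 h at 27° C or with a CFTR modulator 24 h at 37° C. Iodide-induced quench recorded 2 min; EC50 from (1−F/F0) at 36 s versus concentration.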

[2] = target: T2, CFTR G551D mutant (Homo sapiens, UniProt P13569, G551D); test: YFP-halide influx assay for the CFTR-G551D mutation (HEK293 cells); settings: forskolin 10.67 μM
T2 construct: expressed in transfected cells; host or cells: HEK293 cells, reverse transfection with plasmids
Summary of the method: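 HEK293 cells reverse-transfected with CFTR G551D and halide-sensitive YFP (H148Q/I152L/F47L), expressed 24 h at 37 °C. YFP fluorescence quenching recorded for 7 s after I⁻ injection. Response = 1−F/F0; EC50 derived from 1−F/F0 vs compound concentration.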

[3] = target: T3, CFTR G551D/ΔF508 (Homo sapiens, UniProt P13569, G551D); test: TECC assay, primary bronchial epithelial cells, CFTR G551D/ΔF508; settings: primary bronchial epithelial cells heterozygous G551D/ΔF508, acute mode, increase in Isc after forskolin
T3 construct: host or cells: primary human bronchial epithelial cells from CF patients heterozygous G551D/ΔF508, no corrector pre-treatment
Experimental: (§1) The TECC (Tranepithelial Clamp Circuit, EP-design) assay measures the functionality of the cystic fibrosis Transmembrane Conductance regulator (CFTR) by measuring the short circuit current (Isc) generated over the basolateral and apical membrane of lung epithelial cells. In TECC the transepithelial potential PD and transepithelial resistance (Rt) are measured in an open circuit and transformed to Isc using Ohm's law. 24 Wells can be measured simultaneously allowing a higher throughput compared to Ussing chambers.
(§2) For this purpose, bronchial epithelial cells isolated from CF patients homozygous for the CFTR ΔF508 mutation (hAEC-CF, Epithelix) are plated on type IV collagen-coated Transwell® supports (Costar). Human airway epithelia are generated by provision of an air-liquid interface for 21 days to form well-differentiated polarized cultures that resemble in vivo pseudo-stratified ciliated epithelium (Fulcher, M. L., Gabriel, S., Burns, K. A., Yankaskas, J. R., Randell, S. H., 2005. Well-differentiated human airway epithelial cell cultures. Methods Mol. Med. 107, 183-206). In the case of the homozygous ΔF508 CFTR samples, the differentiated cells are treated with 3 μM VX809 (2626 South Loop West, Suite 225, Houston, Tex. 77054 USA, Cat n# S1565) to allow sufficient expression of properly folded CFTR protein on the membrane (48 hours basolateral treatment and 24 hours apical treatment), prior to electrophysiological recordings. For heterozygous G551D/ΔF508, differentiated cells are used as such for the recordings.
(§3) Information on the compounds can be retrieved on the homozygous ΔF508 CFTR samples looking at increased CFTR activity when compounds are added in an acute mode or in a chronic mode. On G551D/ΔF508 CFTR heterozygous samples compounds are added in an acute mode to the differentiated cells.
(§4) For the acute mode, for electrophysiological recording, the human airway epithelia are mounted in the TECC heating plate for electrophysiological measurement and kept at 37° C. The epithelia are bathed in a NaCl-Ringer solution (120 mM NaCl, 25 mM NaHCO3, 1.2 mM CaCl2, 1.2 mM MgCl2, 0.8 mM KH2PO4, 0.8 mM K2HPO4, pH 7.4, 5 mM glucose) on both the basolateral and apical sides. Apical amiloride is used to inhibit the endogenous ENaC currents while forkolin is applied on both apical and basolateral side to stimulate CFTR. After forskolin triggering, compounds are added on both sides to test their potential for increasing CFTR gating. Measurements are done during a 20 minute timeframe with recordings every 2 minutes. The increase in Isc is used as a measure for the increased CFTR activity, EC50 values can be generated by measuring impact of different concentrations of compound on Isc on primary cells, for this purpose each transwell is treated with a different compound concentration. Inh-172, an inhibitor specific for CFTR, is used to test the specificity of the tested compounds.
When subjected to this protocol, the following values were obtained. The difference between ΔIsc measured as DMSO (baseline), and the ΔIsc measured with the compound tested.

[4] = target: T4, CFTR ΔF508 (Homo sapiens, UniProt P13569, DEL508-508); test: TECC assay, primary bronchial epithelial cells, CFTR ΔF508; settings: primary bronchial epithelial cells of CF patients homozygous for CFTR ΔF508, treated with 3 μM VX809, increase in Isc after forskolin
T4 construct: host or cells: primary human bronchial epithelial cells from CF patients homozygous for ΔF508, pre-treated with VX809
Experimental: as §1, §2, §3, §4
For the chronic mode, the differentiated cells are treated with 3 μM VX809 (2626 South Loop West, Suite 225, Houston, Tex. 77054 USA, Cat n# S1565) and potentiator compounds at different concentrations (48 hours basolateral treatment and 24 hours apical treatment), prior to electrophysiological recordings. For electrophysiological recording, the human airway epithelia are mounted in the TECC heating plate for electrophysiological measurement and kept at 37° C. The epithelia are bathed in a NaCl-Ringer solution (120 mM NaCl, 25 mM NaHCO3, 1.2 mM CaCl2, 1.2 mM MgCl2, 0.8 mM KH2PO4, 0.8 mM K2HPO4, pH 7.4, 5 mM glucose) on both the basolateral and apical sides. Apical amiloride is used to inhibit the endogenous ENaC currents while forkolin is applied on both apical and basolateral side to stimulate CFTR. Measurements are done during a 20 minute timeframe with recordings every 2 minutes. […]

[5] = target: T5, CFTR-G178R (Homo sapiens, UniProt P13569, G178R); test: YFP-halide influx assay for the CFTR-G178R
T5 construct: expressed in transfected cells
Excerpt: (§5) The YFP halide influx assay measured the functionality of the cystic fibrosis Transmembrane Conductance regulator (CFTR) channels. The assay was used to evaluate the capacity of compounds to increase the channel opening of existing mutant CFTR channels in the membrane. It makes use of the observation that the yellow fluorescent protein (YFP) variant YFP H148Q, I152L, F47L has its fluorescence substantially quenched by halide ions like Cl^− and I^− (Galietta, L. J. V., Haggie, P. M., Verkman, A. S., 2001. Green fluorescent protein-based halide indicators with improved chloride and iodide affinities. FEBS Lett. 499, 220-224. doi:10.1016/S0014-5793(01)02561-3).
(§6) For this purpose, HEK293-cells were seeded in 96 well plates. During seeding, the cells were reverse-transfected with plasmid vectors that direct the expression of the CFTR G551D mutant and of the YFP reporter. Cells were incubated at 37° C., 5% CO2 for 24 hours so as to allow for sufficient expression of the CFTR protein.
(§7) The I^−-induced quenching of fluorescence was recorded immediately after injection of I^− for 7 seconds. The capacity of a compound to increase the channel opening was directly correlated with the decrease in fluorescence, and was expressed as (1−(fluorescence after 7 seconds (F)/fluorescence before injection (F0))) and an EC50 was derived from a (1−F/F0) vs compound concentration plot.
(§8) Similar YHA assays were developed for other channel gating defective or channel conductance defective CFTR mutants to determine effect of compound on channel activity. Examples of mutants are G178R, G1349D, S549N, R117H, R334W. This assay is also used for additional class I CFTR mutants, including G542X, W1282X; class II mutants including N1303K, and for class III mutants including S1251N; or wild-type CFTR.

[6] = target: T6, CFTR-G1349D (Homo sapiens, UniProt P13569, G1349D); test: YFP-halide influx assay for the CFTR-G1349D
T6 construct: expressed in transfected cells
Summary of the method: (§9)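 HEK293 cells reverse-transfected with a CFTR mutant and YFP H148Q/I152L/F47L halide sensor, expressed 24 h at 37° C. Fluorescence quenching followed for 7 s after I⁻ injection; activity expressed as 1−F/F0, with EC50 fitted from 1−F/F0 versus compound concentration.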

[7] = target: T7, CFTR-S549N (Homo sapiens, UniProt P13569, S549N); test: YFP-halide influx assay for the CFTR-S549N; set-up: % Activation: concentration or dose not given beside the values
T7 construct: expressed in transfected cells
Excerpt: as §5, §6, §7, §8

[8] = target: T8, CFTR-R117H (Homo sapiens, UniProt P13569, R117H); test: YFP-halide influx assay for the CFTR-R117H
T8 construct: expressed in transfected cells
Summary of the method: as §9

[9] = target: G551D CFTR (Homo sapiens, UniProt P13569, G551D); test: TECC assay, FRT-CFTR G551D protocol; settings: FRT cells stably transfected with G551D CFTR, high expression cells, increase in Isc after forskolin
Experimental: For G551D recordings, Fischer Rat Thyroid (FRT) cells stably transfected with G551D CFTR (a low CFTR-G551D expressing cell line and a high expressing CFTR-G551D cell line from Rosalind Franklin University of Medicine and Science, North Chicago, Ill.) are plated on Transwell® supports (Costar 6.5 mm diameter, 0.4 μm pore size). The cells are grown for 8-10 days under liquid-liquid interface conditions prior to electrophysiological readings. For electrophysiological recording, the FRT-G551D cells are mounted in the TECC heating plate for electrophysiological measurement and kept at 37° C. The epithelia are bathed in HEPES buffered culturing medium without FBS on both the basolateral and apical sides. Apical amiloride is used to inhibit the endogenous ENaC currents while forkolin is applied on both apical and basolateral side to stimulate CFTR. After forskolin triggering, compounds are added on both sides to test their potential for increasing CFTR gating. Measurements are done during a 10 minute timeframe with recordings every 2 minutes. The increase in Isc is used as a measure for the increased CFTR activity, EC50 values can be generated by measuring impact of different concentrations of compound on Isc on the cells, for this purpose each transwell is treated with a different compound concentration. Inh-172, an inhibitor specific for CFTR, is used to test the specificity of the tested compounds.

T5 sequence (P13569 whole entry G178R): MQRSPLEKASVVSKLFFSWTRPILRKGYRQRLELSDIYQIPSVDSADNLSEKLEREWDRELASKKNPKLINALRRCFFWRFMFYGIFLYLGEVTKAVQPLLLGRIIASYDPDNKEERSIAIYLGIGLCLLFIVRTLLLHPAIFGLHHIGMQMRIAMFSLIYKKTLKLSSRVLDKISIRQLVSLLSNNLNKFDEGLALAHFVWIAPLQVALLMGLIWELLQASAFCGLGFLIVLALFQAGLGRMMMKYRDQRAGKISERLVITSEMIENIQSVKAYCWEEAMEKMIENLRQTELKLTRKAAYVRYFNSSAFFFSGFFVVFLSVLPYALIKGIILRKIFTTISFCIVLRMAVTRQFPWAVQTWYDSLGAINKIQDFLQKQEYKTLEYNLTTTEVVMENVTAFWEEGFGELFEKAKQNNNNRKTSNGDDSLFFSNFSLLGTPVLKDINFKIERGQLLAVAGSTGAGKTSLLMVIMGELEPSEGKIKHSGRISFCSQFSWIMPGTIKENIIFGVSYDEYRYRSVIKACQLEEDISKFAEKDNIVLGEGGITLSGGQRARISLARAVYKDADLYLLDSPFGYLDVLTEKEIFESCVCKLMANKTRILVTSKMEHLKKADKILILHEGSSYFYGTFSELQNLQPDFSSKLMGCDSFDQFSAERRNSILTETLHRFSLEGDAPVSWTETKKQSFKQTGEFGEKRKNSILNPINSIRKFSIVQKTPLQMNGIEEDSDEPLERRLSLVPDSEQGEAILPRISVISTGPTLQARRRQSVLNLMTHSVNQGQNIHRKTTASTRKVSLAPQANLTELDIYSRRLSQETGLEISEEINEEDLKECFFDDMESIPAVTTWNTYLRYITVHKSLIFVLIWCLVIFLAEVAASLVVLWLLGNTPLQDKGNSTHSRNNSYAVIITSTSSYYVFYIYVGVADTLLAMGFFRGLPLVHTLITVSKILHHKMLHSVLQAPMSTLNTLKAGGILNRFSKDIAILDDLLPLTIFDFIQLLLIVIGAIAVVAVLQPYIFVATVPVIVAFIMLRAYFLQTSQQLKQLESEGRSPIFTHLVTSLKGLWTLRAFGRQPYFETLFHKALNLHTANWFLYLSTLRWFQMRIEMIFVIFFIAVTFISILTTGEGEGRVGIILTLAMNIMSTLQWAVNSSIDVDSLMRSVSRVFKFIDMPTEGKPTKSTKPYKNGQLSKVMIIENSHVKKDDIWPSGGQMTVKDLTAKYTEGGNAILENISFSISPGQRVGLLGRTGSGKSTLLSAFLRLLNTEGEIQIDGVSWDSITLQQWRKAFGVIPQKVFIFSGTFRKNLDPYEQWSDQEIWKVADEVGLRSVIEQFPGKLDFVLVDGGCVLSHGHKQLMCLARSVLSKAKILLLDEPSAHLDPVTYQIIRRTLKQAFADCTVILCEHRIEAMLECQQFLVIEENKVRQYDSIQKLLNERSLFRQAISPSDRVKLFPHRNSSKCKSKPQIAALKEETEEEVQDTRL
T6 sequence (P13569 whole entry G1349D): as the sequence (P13569 whole entry G178R) above, with R178G, G1349D counted along it
T8 sequence (P13569 whole entry R117H): as the sequence (P13569 whole entry G178R) above, with R117H, R178G counted along it
T1 sequence (P13569 with tags, fused parts or gaps DEL508-508): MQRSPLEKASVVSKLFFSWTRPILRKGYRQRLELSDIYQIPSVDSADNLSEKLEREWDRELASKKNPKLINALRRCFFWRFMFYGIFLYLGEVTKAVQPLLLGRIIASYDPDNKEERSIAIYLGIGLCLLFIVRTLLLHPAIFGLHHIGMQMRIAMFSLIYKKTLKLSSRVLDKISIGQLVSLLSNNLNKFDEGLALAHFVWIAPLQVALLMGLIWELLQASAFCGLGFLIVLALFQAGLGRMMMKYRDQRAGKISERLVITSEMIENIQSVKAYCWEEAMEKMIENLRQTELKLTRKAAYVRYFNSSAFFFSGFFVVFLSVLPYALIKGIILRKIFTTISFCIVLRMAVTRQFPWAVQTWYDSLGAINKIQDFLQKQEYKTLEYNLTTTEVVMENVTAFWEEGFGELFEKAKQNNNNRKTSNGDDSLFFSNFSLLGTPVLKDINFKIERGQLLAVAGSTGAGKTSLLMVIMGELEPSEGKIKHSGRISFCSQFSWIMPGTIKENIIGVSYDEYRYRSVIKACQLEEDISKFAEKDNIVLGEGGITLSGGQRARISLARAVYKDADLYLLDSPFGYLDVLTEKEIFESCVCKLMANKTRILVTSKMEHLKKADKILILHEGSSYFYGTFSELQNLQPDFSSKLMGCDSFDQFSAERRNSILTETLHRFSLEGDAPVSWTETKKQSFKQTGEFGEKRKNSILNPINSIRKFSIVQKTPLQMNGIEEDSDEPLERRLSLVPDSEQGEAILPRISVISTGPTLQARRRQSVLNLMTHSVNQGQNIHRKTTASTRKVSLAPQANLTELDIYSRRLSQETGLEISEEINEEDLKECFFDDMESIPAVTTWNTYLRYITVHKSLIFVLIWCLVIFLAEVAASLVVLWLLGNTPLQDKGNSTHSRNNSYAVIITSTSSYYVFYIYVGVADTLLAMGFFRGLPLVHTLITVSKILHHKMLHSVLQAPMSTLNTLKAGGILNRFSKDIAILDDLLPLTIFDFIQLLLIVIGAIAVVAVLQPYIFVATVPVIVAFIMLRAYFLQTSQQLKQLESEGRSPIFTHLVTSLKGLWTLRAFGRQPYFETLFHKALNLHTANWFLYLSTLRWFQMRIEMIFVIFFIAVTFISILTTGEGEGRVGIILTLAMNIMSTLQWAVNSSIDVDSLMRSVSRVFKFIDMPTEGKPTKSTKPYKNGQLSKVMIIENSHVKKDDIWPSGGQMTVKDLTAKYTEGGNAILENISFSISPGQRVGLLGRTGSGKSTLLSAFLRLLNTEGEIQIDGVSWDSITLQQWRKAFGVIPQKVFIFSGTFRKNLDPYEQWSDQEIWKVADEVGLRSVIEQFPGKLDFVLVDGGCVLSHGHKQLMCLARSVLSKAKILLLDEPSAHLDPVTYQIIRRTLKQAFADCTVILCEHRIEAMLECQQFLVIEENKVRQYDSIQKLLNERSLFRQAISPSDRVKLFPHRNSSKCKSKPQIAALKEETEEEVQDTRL
T4 sequence (P13569 with tags, fused parts or gaps DEL508-508): as above
T7 sequence (P13569 whole entry S549N): as the sequence (P13569 whole entry G178R) above, with R178G, S549N counted along it
T2 sequence (P13569 whole entry G551D): as the sequence (P13569 whole entry G178R) above, with R178G, G551D counted along it
T3 sequence (P13569 whole entry F508del/G551D): as the sequence (P13569 with tags, fused parts or gaps DEL508-508) above, with G550D counted along it
G551D CFTR, sequence (P13569 whole entry G551D): as the sequence (P13569 whole entry G178R) above, with R178G, G551D counted along it

For `CC(C)OC[C@H](O)CNC(=O)c1ncc(S(=O)(=O)c2ccc(C(F)(F)F)cc2)cc1N` [Compound 252, 3-amino-N-[(2R)-2-hydroxy-3-(propan-2-yloxy)propyl]-5-{[4-(trifluoromethyl)phenyl]sulfonyl}pyridine-2-carboxamide], the “% Activation” value [1] was 102.0%, the EC50 [1] was 2.5 nM and the “% Activation” value [2] was 99.7%. The EC50 [2] was 215 nM and the EC50 [3] was 62.2 nM.

With `COCC(O)CNC(=O)c1ncc(S(=O)(=O)c2ccc(OC(F)(F)F)cc2F)cc1N` (stereo not drawn) [Compound 71, 3-amino-5-{[2-fluoro-4-(trifluoromethoxy)phenyl]sulfonyl}-N-(2-hydroxy-3-methoxypropyl)pyridine-2-carboxamide] the “% Activation” value [1] was 108.0%, the EC50 [1] was 19.1 nM and the “% Activation” value [2] was 70.2%. The EC50 [2] was 1260 nM and the EC50 [4] was 112 nM.

With `COCC(O)CNC(=O)c1ncc(S(=O)(=O)c2ccc(OC(F)(F)F)cc2)cc1N` (stereo not drawn) [Compound 3, 3-amino-N-(2-hydroxy-3-methoxypropyl)-5-{[4-(trifluoromethoxy)phenyl]sulfonyl}pyridine-2-carboxamide] the “% Activation” value [1] was 109.7%, the EC50 [1] was 17.7 nM and the “% Activation” value [2] was 73.9%. For the same compound, the EC50 [2] was 1980 nM, the “% Activation” value [5] was 98.2% and the EC50 [5] was 392 nM. The “% Activation” value [6] was 83.2%, the EC50 [6] was 291 nM and the “% Activation” value [7] was 91.8%. The EC50 [7] was 839 nM, the “% Activation” value [8] was 102.0% and the EC50 [8] was 451 nM. The EC50 [9] was 1980 nM.

With `Nc1cc(S(=O)(=O)c2ccccc2)cnc1C(=O)NC[C@@H](O)C(F)(F)F` [Compound 253, 3-amino-5-(phenylsulfonyl)-N-[(2R)-3,3,3-trifluoro-2-hydroxypropyl]pyridine-2-carboxamide] the “% Activation” value [1] was 102.6%, the EC50 [1] was 6 nM and the “% Activation” value [2] was 51.2%. It also gave an EC50 [2] of 1070 nM and an EC50 [3] of 1440 nM.

For `CCOCCOCC(O)CNC(=O)c1ncc(S(=O)(=O)c2ccc(OC(F)(F)F)cc2)cc1N` (stereo not drawn) [Compound 38, 3-amino-N-[3-(2-ethoxyethoxy)-2-hydroxypropyl]-5-{[4-(trifluoromethoxy)phenyl]sulfonyl}pyridine-2-carboxamide], the “% Activation” value [1] was 103.0%, the EC50 [1] was 61.6 nM and the “% Activation” value [2] was 86.0%. For the same compound, the EC50 [2] was 1110 nM and the EC50 [4] was 91.3 nM.

`CC(C)(O)CNC(=O)c1ncc(S(=O)(=O)c2ccc(C(F)(F)F)cc2)cc1N` [Compound 11, 3-amino-N-(2-hydroxy-2-methylpropyl)-5-{[4-(trifluoromethyl)phenyl]sulfonyl}pyridine-2-carboxamide] was tested, and the “% Activation” value [1] was 113.5%, the EC50 [1] was 21.7 nM and the “% Activation” value [2] was 75.7%. For the same compound, the EC50 [2] was 835 nM, the “% Activation” value [5] was 95.3% and the EC50 [5] was 442 nM. The “% Activation” value [6] was 90.4%, the EC50 [6] was 1600 nM and the “% Activation” value [7] was 84.1%. The EC50 [7] was 945 nM, the “% Activation” value [8] was 90.4% and the EC50 [8] was 296 nM. The EC50 [9] was 1350 nM.

With `CC1(C)CN(C(=O)c2ncc(S(=O)(=O)c3ccc(OC(F)(F)F)cc3)cc2N)C1` [Compound 59, (3-amino-5-{[4-(trifluoromethoxy)phenyl]sulfonyl}pyridin-2-yl)(3,3-dimethylazetidin-1-yl)methanone] the “% Activation” value [1] was 111.0%, the EC50 [1] was 34.3 nM and the “% Activation” value [2] was 84.6%. The EC50 [2] was 1630 nM and the EC50 [4] was 50.4 nM.
